From ChEMBL document CHEMBL4138210, “Synthesis and biological evaluation of some novel diastereoselective benzothiazole β-lactam conjugates” (Eur J Med Chem, 2018) come the findings set out here.

The subject of one data set is Escherichia coli. The experiment in a line: Antimicrobial activity against Escherichia coli ATCC […] after 24 to 48 hrs by broth serial dilution method. Type of data set: functional.
A further data set relates to Pseudomonas aeruginosa. The experiment in a line: Antimicrobial activity against Pseudomonas aeruginosa PAO1 after 24 to 48 hrs by broth serial dilution method. The format is functional.
Another data set concerns Staphylococcus aureus. The experiment in a line: Antimicrobial activity against Staphylococcus aureus ATCC 25923 after 24 to 48 hrs by broth serial dilution method. Type of data set: functional.
A short description of data set [1]: Cytotoxicity against human HepG2 cells assessed as cell viability after 72 hrs by MTT assay relative to control. The format is cell-based. Further details: concentration or dose not given beside the values. Particulars: read-out: Activity. On the technique in general: Tetrazolium assays rely on reduction of a dye to a coloured formazan, in cell work by metabolically active cells.

Another data set concerns Plasmodium falciparum. The experiment in a line: Antimalarial activity against Plasmodium falciparum K1. Type of data set: functional, organism-based.
The nature of data set [2]: Hemolytic activity against human RBC at 250 uM after 1 hr relative to control. Particulars: red blood cells (erythrocytes), read-out: Activity. Type of data set: ADME, cell-based, Erythrocyte.
The mark [3] stands for this setting: Plasmodium falciparum, K1, read-out: IC50.

≈ marks a conversion by molar mass, not a printed value.

As usually defined, the MIC is the lowest concentration that inhibits growth of the organism. The term IC50 denotes the concentration that gives 50% inhibition. In the case of `CCOc1ccc(N2C(=O)[C@H](Oc3ccc(-c4nc5ccccc5s4)cc3)[C@@H]2c2ccc([N+](=O)[O-])cc2)cc1`, the MIC in the data set on Escherichia coli was more than 200 mg/L; against Pseudomonas aeruginosa, more than 200 mg/L; against Staphylococcus aureus it was 215 mg/L (≈ 400 µM). Moreover, in data set [1], the viability at 72 h was determined as 74.8%. Besides, the IC50 with Plasmodium falciparum (setting [3]) was found to be 11.8 µM. In addition, in data set [2], the hemolysis at 1 h, 250 µM was found to be 2.29%.
For the molecule `COc1ccc(N2C(=O)[C@H](Oc3ccc(-c4nc5ccccc5s4)cc3)[C@@H]2c2c3ccccc3cc3ccccc23)cc1`, the MIC is more than 200 mg/L against Escherichia coli, more than 200 mg/L against Pseudomonas aeruginosa and 231 mg/L (≈ 399 µM) against Staphylococcus aureus. Further, the IC50 result in the data set on Plasmodium falciparum is on record as “Nd(Insoluble)”. In addition, the hemolysis at 1 h, 250 µM in data set [2] came out at 0.89%.
On to `COc1ccc(N2C(=O)[C@H](Oc3ccc(-c4nc5ccccc5s4)cc3)[C@@H]2c2ccc(Cl)cc2)cc1`, for which the MIC against Escherichia coli is more than 200 mg/L; against Pseudomonas aeruginosa it was more than 200 mg/L; against Staphylococcus aureus, 205 mg/L (≈ 400 µM). Further, the IC50 in the data set with Plasmodium falciparum (setting [3]) was found to be 40.7 µM. The hemolysis at 1 h, 250 µM in data set [2] turned out to be 0.93%.
In the case of `Cc1ccc(N2C(=O)[C@H](Oc3cccc(-c4nc5ccccc5s4)c3)[C@@H]2c2ccc(Cl)cc2)cc1`, the MIC in the data set with Escherichia coli is more than 200 mg/L; in the data set with Pseudomonas aeruginosa, more than 200 mg/L; against Staphylococcus aureus it was 199 mg/L (≈ 400 µM). Also, the IC50 with Plasmodium falciparum (setting [3]) was 76.7 µM. Besides, the hemolysis at 1 h, 250 µM in data set [2] is 1.13%.
On to `COc1ccc(N2C(=O)[C@H](Oc3ccc(-c4nc5ccccc5s4)cc3)[C@@H]2c2cccc([N+](=O)[O-])c2)cc1`, for which the MIC in the data set on Escherichia coli is more than 200 mg/L; against Pseudomonas aeruginosa, more than 200 mg/L; against Staphylococcus aureus it was 26 mg/L (≈ 49.7 µM). Besides, in data set [1], the viability at 72 h was 62.8%. Also, the IC50 with Plasmodium falciparum (setting [3]) turned out to be 17.7 µM. Also, in data set [2], the hemolysis at 1 h, 250 µM came to 1.02%.
For the molecule `COc1ccc(N2C(=O)[C@H](Oc3ccc(-c4nc5ccccc5s4)cc3)[C@@H]2c2ccc(OC)c(OC)c2)cc1`, the MIC against Escherichia coli was more than 200 mg/L; in the data set on Pseudomonas aeruginosa, more than 200 mg/L; in the data set on Staphylococcus aureus, 215 mg/L (≈ 399 µM). Further, the viability at 72 h in data set [1] came to 70.1%. For the same molecule, the concentration for half-maximal inhibition (IC50) with Plasmodium falciparum (setting [3]) worked out at 9.5 µM. Further, the hemolysis at 1 h, 250 µM in data set [2] was found to be 0.82%.
In the case of `CC(C)c1ccc([C@H]2[C@@H](Oc3ccc(-c4nc5ccccc5s4)cc3)C(=O)N2c2ccc(N(C)C)cc2)cc1`, the MIC was more than 200 mg/L against Escherichia coli, more than 200 mg/L in the data set with Pseudomonas aeruginosa and 107 mg/L (≈ 200 µM) against Staphylococcus aureus. Moreover, in the data set with Plasmodium falciparum (setting [3]), the IC50 is more than 125 µM. Also, in data set [2], the hemolysis at 1 h, 250 µM was found to be 1.03%.
In the case of `COc1ccc(N2C(=O)[C@H](Oc3cccc(-c4nc5ccccc5s4)c3)[C@@H]2c2ccc([N+](=O)[O-])cc2)cc1`, the MIC is more than 200 mg/L with Escherichia coli, more than 200 mg/L against Pseudomonas aeruginosa and 26 mg/L (≈ 49.7 µM) with Staphylococcus aureus. In data set [1], the viability at 72 h amounted to 99.5%. Moreover, the IC50 in the data set on Plasmodium falciparum (setting [3]) was more than 125 µM. For the same molecule, the hemolysis at 1 h, 250 µM in data set [2] stood at 1.56%.
On to `COc1ccc(N2C(=O)[C@H](Oc3cccc(-c4nc5ccccc5s4)c3)[C@@H]2c2ccc(Cl)cc2)cc1`, for which the results for the MIC in the data set with Escherichia coli, with Pseudomonas aeruginosa and with Staphylococcus aureus were more than 200 mg/L, more than 200 mg/L and 205 mg/L (≈ 400 µM), respectively. Moreover, the IC50 with Plasmodium falciparum (setting [3]) turned out to be 20.4 µM. For the same molecule, the hemolysis at 1 h, 250 µM in data set [2] was determined as 2.8%.
`Cc1ccc(N2C(=O)[C@H](Oc3ccc(-c4nc5ccccc5s4)cc3)[C@@H]2c2ccc(Cl)cc2)cc1`: the MIC against Escherichia coli was more than 200 mg/L; with Pseudomonas aeruginosa, more than 200 mg/L; in the data set with Staphylococcus aureus it was 199 mg/L (≈ 400 µM). Further, in the data set with Plasmodium falciparum (setting [3]), the IC50 came out at 31.1 µM. Also, in data set [2], the hemolysis at 1 h, 250 µM amounted to 1.16%.
In the case of `COc1ccc(N2C(=O)[C@H](Oc3ccc(-c4nc5ccccc5s4)cc3)[C@@H]2c2ccc([N+](=O)[O-])cc2)cc1`, the figures for the MIC with Escherichia coli, with Pseudomonas aeruginosa and in the data set with Staphylococcus aureus were more than 200 mg/L, more than 200 mg/L and 26 mg/L (≈ 49.7 µM), respectively. For the same molecule, the viability at 72 h in data set [1] amounted to 71.4%. Further, in the data set with Plasmodium falciparum (setting [3]), the IC50 turned out to be 10.4 µM. For the same molecule, the hemolysis at 1 h, 250 µM in data set [2] turned out to be 1.11%.
For `O=C1[C@H](Oc2ccc(-c3nc4ccccc4s3)cc2)[C@H](/C=C/c2ccccc2)N1c1ccc(Cl)cc1`, the figures for the MIC against Escherichia coli, against Pseudomonas aeruginosa and against Staphylococcus aureus were more than 200 mg/L, more than 200 mg/L and 204 mg/L (≈ 401 µM), respectively. Also, the IC50 in the data set on Plasmodium falciparum (setting [3]) amounted to 60.5 µM. Moreover, in data set [2], the hemolysis at 1 h, 250 µM was 2.18%.
In the case of `O=C1[C@H](Oc2ccc(-c3nc4ccccc4s3)cc2)[C@H](c2ccc3ccccc3c2)N1c1ccccc1`, the MIC is more than 200 mg/L with Escherichia coli, more than 200 mg/L with Pseudomonas aeruginosa and 30 mg/L (≈ 60.2 µM) in the data set on Staphylococcus aureus. Further, the viability at 72 h in data set [1] was found to be 58%. The IC50 in the data set with Plasmodium falciparum (setting [3]) came out at 16.3 µM. Also, the hemolysis at 1 h, 250 µM in data set [2] amounted to 0.87%.
Turning to `CCOc1ccc(N2C(=O)[C@H](Oc3cccc(-c4nc5ccccc5s4)c3)[C@@H]2c2ccc([N+](=O)[O-])cc2)cc1`, the MIC was more than 200 mg/L in the data set on Escherichia coli, more than 200 mg/L against Pseudomonas aeruginosa and 215 mg/L (≈ 400 µM) in the data set with Staphylococcus aureus. Moreover, the viability at 72 h in data set [1] is 101%. Moreover, the IC50 in the data set with Plasmodium falciparum (setting [3]) stood at 6 µM. In addition, the hemolysis at 1 h, 250 µM in data set [2] was found to be 1.02%.
Take `COc1cc(N2C(=O)[C@H](Oc3ccc(-c4nc5ccccc5s4)cc3)[C@@H]2c2ccc([N+](=O)[O-])cc2)cc(OC)c1OC`: the values for the minimum inhibitory concentration (MIC) in the data set on Escherichia coli, in the data set on Pseudomonas aeruginosa and against Staphylococcus aureus were more than 200 mg/L, more than 200 mg/L and 29 mg/L (≈ 49.7 µM), respectively. In data set [1], the viability at 72 h was determined as 62.4%. Also, the IC50 result in the data set with Plasmodium falciparum is listed as “Nd(Insoluble)”. The hemolysis at 1 h, 250 µM in data set [2] came to 1.09%.
For the molecule `Cc1ccc(N2C(=O)[C@H](Oc3ccc(-c4nc5ccccc5s4)cc3)[C@@H]2c2ccc([N+](=O)[O-])cc2)cc1`, the MIC against Escherichia coli was more than 200 mg/L; in the data set on Pseudomonas aeruginosa, more than 200 mg/L; in the data set with Staphylococcus aureus, 25 mg/L (≈ 49.3 µM). In addition, the viability at 72 h in data set [1] was determined as 80.7%. Besides, the 50% inhibitory concentration (IC50) with Plasmodium falciparum (setting [3]) turned out to be 11.4 µM. Besides, the hemolysis at 1 h, 250 µM in data set [2] worked out at 1.25%.
